Measurements: patent publication US20130190200A1, “SNP FOR PREDICTING THE SENSITIVITY TO ANTICANCER TARGETED THERAPEUTIC FORMULATION” (Korea Research Institute of Bioscience and Biotechnology, priority 2010, published 2013)

Experiments:
[1] = test system: recurrent and metastatic colorectal cancer patients; test: Clinical association analysis related to survival on subjects treated with anticancer targeted drugs; type: in vivo, human
Protocol: (§1) The prediction of clinical outcomes of the corresponding patients was based on the NCCN surveillance guidelines (www.nccn.org), and the determination of chemosensitivity to anticancer drugs were based on the RECIST criteria (Therasse et al., J Natl Cancer Inst 2000; 92:205-16).
Association analysis was performed on the SNP genotypes sensitive to the individual anticancer drugs obtained in steps (1) and (2) in colorectal cancer patients whose treatment with the corresponding drugs was terminated.

[2] = test system: metastatic cancer patients; test: Clinical association analysis of drug response (RECIST criteria) on subjects treated with anticancer targeted drugs; type: in vivo, human; settings: homozygous substitution alleles of ANXA11 rs1049550 and homozygous or heterozygous substitution alleles of LINS1 rs11247226; P=0.025, 0.019
Description: as §1

bevacizumab
sensitivity and survival, in words (FIG. 2) ([1]; homozygous or heterozygous substitution alleles of ITGA3 rs2230392 vs homozygous reference alleles): greater sensitivity and longer progression-free survival and overall survival
mean overall survival (OS) ([1]; patients carrying homozygous or heterozygous substitution alleles of ITGA3 rs2230392, P=0.006 vs homozygous reference): 22.5±2.1 months
mean progression-free survival (PFS) ([1]; patients carrying homozygous or heterozygous substitution alleles of ITGA3 rs2230392, P=0.018 vs homozygous reference): 8.7±0.7 months
mean overall survival (OS) ([1]; patients with homozygous reference alleles of ITGA3 rs2230392, P=0.006): 13.4±1.9 months
mean progression-free survival (PFS) ([1]; patients with homozygous reference alleles of ITGA3 rs2230392, P=0.018): 5.7±0.7 months
disease-control response rate, in words [2]: significantly high disease-control response rate
